Laboratory results published in PMC6429202, “Drug-1,3,4-Thiadiazole Conjugates as Novel Mixed-Type Inhibitors of Acetylcholinesterase: Synthesis, Molecular Docking, Pharmacokinetics, and ADMET Evaluation” (Molecules, 2019).
Like-named read-outs stand apart in the source and are kept apart here.

Legend:
[1] = DPPH free radical scavenging assay; conditions: tested at 100 µg/mL; compared with vitamin C
Description: The synthesized compounds were further evaluated for their 2,2-diphenyl-1-picrylhydrazyl (DPPH) radical scavenging capacity. To evaluate their DPPH inhibition abilities, a radical scavenging assay was performed. The assay mixtures contained 20 µL of increasing concentrations of the test compounds and 100 µL of DPPH (150 µM), and the total volume of each well was brought up to 200 µL with methanol. Then, the mixture was incubated for 30 min at room temperature. For comparison and assay validity, ascorbic acid (vitamin C) was used as a positive control. The absorbance was recorded at 517 nm using a microplate reader (OPTI Max, Tunable). The results were calculated as percent inhibition. All of the concentrations were evaluated in triplicate.

[2] = molecular target: T1, AChE from human erythrocytes (Homo sapiens, UniProt P22303); experiment: Acetylcholinesterase inhibition assay (Ellman method); format: biochemical
T1 construct: AChE from human erythrocytes; from tissue; host or cells: human erythrocytes
T1 sequence (P22303 other isoform, or with tags, fused parts or gaps): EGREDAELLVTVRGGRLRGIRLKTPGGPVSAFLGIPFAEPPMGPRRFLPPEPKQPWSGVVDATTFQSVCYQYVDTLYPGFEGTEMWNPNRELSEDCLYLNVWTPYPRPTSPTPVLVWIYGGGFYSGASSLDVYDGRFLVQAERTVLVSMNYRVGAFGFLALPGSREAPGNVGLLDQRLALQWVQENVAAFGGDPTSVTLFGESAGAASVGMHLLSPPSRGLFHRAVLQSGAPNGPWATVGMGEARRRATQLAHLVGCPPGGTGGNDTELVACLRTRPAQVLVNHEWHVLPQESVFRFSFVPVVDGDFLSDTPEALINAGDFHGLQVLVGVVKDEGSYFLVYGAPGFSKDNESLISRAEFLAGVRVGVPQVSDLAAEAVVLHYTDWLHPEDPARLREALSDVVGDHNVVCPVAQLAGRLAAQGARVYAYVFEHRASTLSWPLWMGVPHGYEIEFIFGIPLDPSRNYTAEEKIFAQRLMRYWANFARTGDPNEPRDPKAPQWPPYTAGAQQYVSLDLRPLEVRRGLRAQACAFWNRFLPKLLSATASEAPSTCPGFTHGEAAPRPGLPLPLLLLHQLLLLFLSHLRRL
Description: The inhibitory activities of the synthesized compounds were analyzed spectrophotometrically using acetylthiocholine iodide as the substrate by following the method of Ellman et al.. In general, the reaction mixture comprised 180 µL of 50 mM of Tris HCl buffer (pH 8.0) with 0.1 M of sodium chloride and 0.02 M of magnesium chloride, to which 20 µL of enzyme (AChE, EC 3.1.1.7, AChE from human erythrocytes) solution was added (50 U in each well). The synthesized compounds (10 µL at the concentration being tested for their impact on growth) were added to the reaction mixture, and the mixtures were pre-incubated for 30 min at 4 °C. Then, 5,5′-dithiobis(2-nitrobenzoic acid) (0.3 mM, 20 µL) and acetylthiocholine iodide (1.8 mM, 20 µL) were added to the assay solution, and the mixtures were incubated at 37 °C for 10 min. After the incubation period, the absorbance of each well was measured at 412 nm. For the non-enzymatic reaction, the assays were carried out with a blank containing all the components except AChE. The assay measurements were collected at […] using a microplate reader (OPTI Max, Tunable, Molecular Devices, Sunnyvale, CA, USA). IC50 values were calculated using GraphPad Prism 5.0 through non-linear regression. Each experiment was performed in triplicate.
The percentage of inhibition of […] was calculated: inhibition (%) = [(Blank−Sample)/Blank] × 100.

[3] = molecular target: T1, AChE from human erythrocytes; experiment: Kinetic study of AChE inhibition (Lineweaver–Burk plots); format: biochemical; conditions: for Vmax: substrate acetylthiocholine iodide
Description: To determine the inhibition mechanism, a kinetic study was carried out. Compound 3b was selected from the synthesized compounds for kinetic analysis to determine its inhibition potential. The identification of the inhibition mode of compound 3b began by using a series of concentrations of acetylthiocholine iodide (0.00 µM, 0.009 µM, 0.018 µM, and 0.036 µM) with various concentrations of 3b. […] The highest reaction rates were calculated from the initial linear portion of the absorbance plot, which represented the five minutes following the addition of the enzyme, and absorbance data were collected at 30-second intervals. The type of enzyme inhibition was determined from the Lineweaver–Burk plots of the inverse of velocity (1/V) versus the inverse of substrate concentration (1/[S] mM^−1).
The efficiency of 3b in blocking the free enzyme and enzyme–substrate complex was investigated in terms of its enzyme inhibition (EI) and enzyme–substrate inhibition (ESI) constants. […] The plots of the effects of complex 3b were linear and appeared in the second quadrant.

[4] = mean ± SEM, triplicate, substrate acetylthiocholine iodide, read-out: Acetylcholine Esterase (from Human Erythrocytes) IC50 ± SEM

Q: What does the source list for `Nc1nnc(-c2cn(C3CC3)c3cc(N4CCNCC4)c(F)cc3c2=O)s1` [Compound 3a, 3-(5-amino-1,3,4-thiadiazol-2-yl)-1-cyclopropyl-6-fluoro-7-(piperazin-1-yl)quinolin-4(1H)-one]?
A: Free radical scavenging potency (DPPH) [1]: excellent radical scavenging potency; IC50 [2]: 126 ± 3.6 nM

Q: Which results are given for `C[C@@H]1COc2c(N3CCNCC3)c(F)cc3c(=O)c(-c4nnc(N)s4)cn1c23` [Compound 3b, (R)-6-(5-amino-1,3,4-thiadiazol-2-yl)-9-fluoro-3-methyl-10-(piperazin-1-yl)-2H-[1,4]oxazino[2,3,4-ij]quinolin-7(3H)-one]?
A: Free radical scavenging potency (DPPH) [1]: excellent radical scavenging potency; Vmax ([3]; 3b concentration 0.009 µM): 0.000467 ΔA/Sec; Vmax ([3]; 3b concentration 0.018 µM): 0.000343 ΔA/Sec; Vmax ([3]; 3b concentration 0.036 µM): 0.000183 ΔA/Sec; Mode of inhibition of AChE ([3]; Lineweaver–Burk analysis): mixed mode of inhibition; Ki ([3]; from plot of slope versus inhibitor concentration, read-out: Ki (EI dissociation constant)): 3.1 nM; IC50 [2, 4]: 18.1 ± 0.9 nM

Q: For `C[C@@H]1COc2c(N3CCN(C)CC3)c(F)cc3c(=O)c(-c4nnc(N)s4)cn1c23` [Compound 3c, (R)-6-(5-amino-1,3,4-thiadiazol-2-yl)-9-fluoro-3-methyl-10-(4-methylpiperazin-1-yl)-2H-[1,4]oxazino[2,3,4-ij]quinolin-7(3H)-one], which IC50 [2, 4] is on record?
A: The IC50 was 576.3 ± 3.6 nM.

Q: With `CC(C)Cc1ccc(C(C)c2nnc(N)s2)cc1` (stereo not shown) [Compound 3d, 5-(1-(4-isobutylphenyl)ethyl)-1,3,4-thiadiazol-2-amine] as the compound, how does the IC50 [2, 4] read?
A: The IC50 was 2240 ± 112 nM.

Q: With `COc1ccc2cc([C@H](C)c3nnc(N)s3)ccc2c1` [Compound 3e, (S)-5-(1-(6-methoxynaphthalen-2-yl)ethyl)-1,3,4-thiadiazol-2-amine] as the compound, how does the IC50 [2, 4] read?
A: Its IC50 is 3810 ± 190 nM.

Q: With `Nc1nnc(COCCN2CCN(C(c3ccccc3)c3ccc(Cl)cc3)CC2)s1` (stereo not shown) [Compound 3f, 5-((2-(4-((4-chlorophenyl)(phenyl)methyl)piperazin-1-yl)ethoxy)methyl)-1,3,4-thiadiazol-2-amine] as the compound, how does the IC50 [2, 4] read?
A: Its IC50 is 17300 ± 863 nM.

Q: With `Nc1nnc(-c2cn(C3CC3)c3cc(N4CCN(C(=O)c5cccc([N+](=O)[O-])c5)CC4)c(F)cc3c2=O)s1` [Compound 3g, 3-(5-amino-1,3,4-thiadiazol-2-yl)-1-cyclopropyl-6-fluoro-7-(4-(3-nitrobenzoyl)piperazin-1-yl)qui nolin-4(1H)-one] as the compound, how does the IC50 [2, 4] read?
A: The IC50 was 1180 ± 59.1 nM.

Q: For `COc1ccc(C(=O)N2CCN(c3cc4c(cc3F)c(=O)c(-c3nnc(N)s3)cn4C3CC3)CC2)cc1` [Compound 3h, 3-(5-amino-1,3,4-thiadiazol-2-yl)-1-cyclopropyl-6-fluoro-7-(4-(4-methoxybenzoyl)piperazin-1-yl)quinolin-4(1H)-one], which IC50 [2, 4] is on record?
A: Its IC50 is 1710 ± 86.5 nM.

Q: Which IC50 [2, 4] does the source give for `Nc1nnc(-c2cn(C3CC3)c3cc(N4CCN(C(=O)c5ccc(Cl)cc5Cl)CC4)c(F)cc3c2=O)s1` [Compound 3i, 3-(5-amino-1,3,4-thiadiazol-2-yl)-1-cyclopropyl-7-(4-(2,4-dichlorobenzoyl)piperazin-1-yl)-6-fluoroquinolin-4(1H)-one] here?
A: Its IC50 is 29200 ± 1460 nM.
